Laboratory results taken from US20220218679A1, “NOVEL COMPOUNDS AND PHARMACEUTICAL COMPOSITIONS THEREOF FOR THE TREATMENT OF INFLAMMATORY DISORDERS” (Galapagos NV, priority 2019, published 2022).
Converted amounts (≈) assume the structure as drawn. Like-named read-outs stand apart in the source and are kept apart here.

How the values were obtained:
Thermodynamic solubility = assay type: physicochemical; conditions: 37 °C, thermodynamic from solid
From the text: 4.2. Thermodynamic Solubility
Poor solubility, in particular poor thermodynamic solubility can limit the absorption of compounds from the gastrointestinal tract which in turn may reduce oral bioavailability.
Thermodynamic solubility investigates the solubility of a compound as a saturated solution in equilibrium, by opposition to kinetic solubility, which measures the solubility of a metastable solution where supersaturation may occur and provide over estimation of the actual solubility of the compound. (Klein, 2010)
4.2.2. Thermodynamic Solubility—Protocol 2
In a 8 mL glass vial, 1-2 mg of dry matter of compound were added and stirred with the suitable buffers (Fed State Simulated Intestine Fluid, FeSSIF, or Fasted State Simulated Intestine Fluid, FaSSIF, or Fasted State Simulated Gastric Fluid, FaSSGF, or phosphate buffer pH 7.4) for 24 h at r.t. (for the buffer pH 7.4) or 37° C. (for the GI fluids). The concentration of the mixture was 1 mg/mL.
A volume of 1000 μL were sampled, centrifuged for 10 min at 10 000 rpm and 500 μL of the supernatant were filtered on captiva plate. The samples were diluted in duplicates in DMSO (F100 and F10). Then, a final dilution (F100) in 80/20 H2O/MeCN containing the internal standard (warfarin) was used for LCMS-MS analysis.
A standard curve was made starting from a 40,000 ng/mL stock in DMSO, freshly prepared from dry matter. Then, successive concentrations at 15,000, 11,000, 6,000, 2,500, 1,000, 375, 150 and 75 ng/mL in DMSO were prepared.
Three quality control samples were made: one of 10,000, 1,500 and 200 ng/mL in DMSO, also starting from the DMSO working stock solution at 40,000 ng/mL.
The standard curve and quality controls were diluted a F100 in 80/20 H2O/MeCN (with internal standard) and analyzed on LC/MS-MS (API4000 or API5500).
The samples were analyzed on LC-MS with a flow rate of 0.6 mL/min. The mobile phase A was 0.1% formic acid in water and the mobile phase B was 0.1% formic acid in 90% MeCN and 10% of H2O. The sample was run under positive or negative ion spray on Pursuit C18—5 μm (2.0×20 mm) column, from Agilent.
The ratio analyte/internal standard peaks areas of the standard curve were plotted in a graph and a linear or polynomial of the second order equation was used to calculate the unknown concentrations of the test compound.
Solubility values were reported in μg/mL.

[1] = system: sclerodermatous cGvHD in BALB/c (H-2d) mice; test: Murine sclerodermatous chronic graft-versus host disease (cGvHD); assay type: in vivo; conditions: 10 mg/kg b.i.d., day 21 to day 56 post transplantation
From the text: 5.10. Murine Sclerodermatous Chronic Graft-Versus Host Disease (cGvHD)
In this cGvHD model, fibrosis is induced in BALB/c (H-2d) mice by allogeneic transplantation of bone marrow cells and splenocytes from B10.D2 (H-2d) donor mice (minor HLA mismatch). The recipient mice develop inflammation-driven dermal and pulmonary fibrosis resembling patients with rapidly progressive diffuse cutaneous systemic sclerosis. (Zerr et al., 2012)
The treatment is provided only after the onset of first clinical symptoms of sclerodermatous cGvHD. […]
The anti-fibrotic effects on skin were analysed by determination of dermal thickness, quantification of lesional collagen and staining for myofibroblasts.
In case of positive effects on skin fibrosis, effects on pulmonary fibrosis were analysed by Ashcroft scoring, by hydroxyproline content and by quantification of the collagen covered area using SirCol staining.
Based on individual animal raw data, the means for each group were determined and percent change from disease controls was calculated. Treatment groups were compared to disease controls using a one-way analysis of variance (1-way ANOVA) with a Dunnett's post-hoc analysis for measured (parametric) data or a Kruskal-Wallis test with a Dunn's post-hoc analysis for scored (non-parametric) data.

solubility thermodynamic at 24 h (Thermodynamic solubility; Fasted State Simulated Intestine Fluid (FaSSIF), fassif, Fasted State Simulated Intestine Fluid, read-out: Tsol FaSSIF): 11.3 µg/mL (≈ 27.5 µM)
solubility thermodynamic at 24 h (Thermodynamic solubility; Fed State Simulated Intestine Fluid (FeSSIF), fessif, Fed State Simulated Intestine Fluid, read-out: Tsol FeSSIF): 83.4 µg/mL (≈ 203 µM)
Compound: COc1cn2nc(CCC(C)(C)O)cc2cc1NC(=O)c1cccn(C2CC2)c1=O [Compound 1, 1-cyclopropyl-N-[2-(3-hydroxy-3-methylbutyl)-6-methoxypyrazolo[1,5-a]pyridin-5-yl]-2-oxopyridine-3-carboxamide]
effect on Lung fibrosis (Ashcroft, SirCol) [1]: statistically significant effect
effect on skin fibrosis (Hydroxyproline) [1]: statistically significant effect
